Assay results published in ChEMBL document CHEMBL3991601, “The target landscape of clinical kinase drugs” (Science, 2017).
Activity calls are given as the source filed them.

Legend:
[1] = target: T1, Acyl-CoA dehydrogenase family member 10 (Homo sapiens, UniProt Q6JQN1)
T1 sequence (Q6JQN1 whole entry): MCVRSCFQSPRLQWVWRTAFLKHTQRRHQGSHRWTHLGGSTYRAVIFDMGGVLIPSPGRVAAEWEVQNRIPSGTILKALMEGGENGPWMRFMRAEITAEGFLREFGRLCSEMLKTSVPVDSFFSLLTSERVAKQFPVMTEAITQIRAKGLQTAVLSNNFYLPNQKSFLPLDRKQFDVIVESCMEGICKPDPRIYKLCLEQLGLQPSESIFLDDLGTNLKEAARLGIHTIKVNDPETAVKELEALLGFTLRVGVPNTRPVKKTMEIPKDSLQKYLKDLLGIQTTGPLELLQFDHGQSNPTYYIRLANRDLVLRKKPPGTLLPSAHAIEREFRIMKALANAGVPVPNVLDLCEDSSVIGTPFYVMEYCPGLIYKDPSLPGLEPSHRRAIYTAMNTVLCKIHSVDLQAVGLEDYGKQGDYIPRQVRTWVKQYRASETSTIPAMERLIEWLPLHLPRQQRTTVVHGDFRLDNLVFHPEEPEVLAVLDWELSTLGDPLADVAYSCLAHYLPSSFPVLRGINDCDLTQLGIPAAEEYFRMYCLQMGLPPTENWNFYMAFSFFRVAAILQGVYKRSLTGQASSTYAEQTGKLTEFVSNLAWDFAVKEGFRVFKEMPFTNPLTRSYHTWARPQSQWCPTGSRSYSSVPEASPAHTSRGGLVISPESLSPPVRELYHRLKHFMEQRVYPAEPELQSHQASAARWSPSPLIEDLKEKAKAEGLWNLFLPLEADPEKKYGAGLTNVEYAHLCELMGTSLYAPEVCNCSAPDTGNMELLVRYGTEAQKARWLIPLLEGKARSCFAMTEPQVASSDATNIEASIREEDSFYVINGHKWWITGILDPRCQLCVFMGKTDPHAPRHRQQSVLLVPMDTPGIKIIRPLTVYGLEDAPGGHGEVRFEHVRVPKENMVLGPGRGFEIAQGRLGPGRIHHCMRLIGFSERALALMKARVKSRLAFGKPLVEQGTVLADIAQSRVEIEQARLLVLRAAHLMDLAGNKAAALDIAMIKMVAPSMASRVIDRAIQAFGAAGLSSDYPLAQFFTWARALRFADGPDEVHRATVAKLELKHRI

[2] = target: T2, Probable ATP-dependent RNA helicase DDX6 (Homo sapiens, UniProt P26196)
T2 sequence (P26196 whole entry): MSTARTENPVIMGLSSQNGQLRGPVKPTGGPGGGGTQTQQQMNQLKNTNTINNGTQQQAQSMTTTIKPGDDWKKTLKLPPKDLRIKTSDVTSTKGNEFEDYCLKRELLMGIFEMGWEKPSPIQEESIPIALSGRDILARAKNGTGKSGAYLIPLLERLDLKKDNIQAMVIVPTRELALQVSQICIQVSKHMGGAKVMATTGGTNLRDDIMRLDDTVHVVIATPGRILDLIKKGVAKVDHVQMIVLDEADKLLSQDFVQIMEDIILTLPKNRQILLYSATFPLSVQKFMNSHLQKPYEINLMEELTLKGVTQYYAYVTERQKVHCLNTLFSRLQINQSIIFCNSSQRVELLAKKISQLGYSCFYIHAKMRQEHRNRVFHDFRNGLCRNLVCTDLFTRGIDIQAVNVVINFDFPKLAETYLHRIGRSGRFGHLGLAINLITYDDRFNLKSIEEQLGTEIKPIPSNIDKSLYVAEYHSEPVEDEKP

[3] = target: S-adenosylmethionine synthase isoform type-2 (Homo sapiens, UniProt P31153)
Sequence of S-adenosylmethionine synthase isoform type-2 (P31153 whole entry, canonical isoform): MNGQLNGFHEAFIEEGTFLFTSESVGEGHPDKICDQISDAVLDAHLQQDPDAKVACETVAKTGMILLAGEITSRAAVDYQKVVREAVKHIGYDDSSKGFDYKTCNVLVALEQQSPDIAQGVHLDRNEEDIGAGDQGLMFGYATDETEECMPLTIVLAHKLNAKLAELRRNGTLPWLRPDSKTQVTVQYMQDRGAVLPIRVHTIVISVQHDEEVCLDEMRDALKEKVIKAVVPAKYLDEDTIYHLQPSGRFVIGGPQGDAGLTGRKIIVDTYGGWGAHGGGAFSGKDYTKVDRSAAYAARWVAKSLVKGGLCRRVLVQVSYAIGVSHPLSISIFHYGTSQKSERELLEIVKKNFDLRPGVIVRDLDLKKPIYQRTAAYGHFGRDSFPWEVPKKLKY

[4] = target: Cyclin-dependent kinase 7 (Homo sapiens, UniProt P50613)
Sequence of Cyclin-dependent kinase 7 (P50613 whole entry): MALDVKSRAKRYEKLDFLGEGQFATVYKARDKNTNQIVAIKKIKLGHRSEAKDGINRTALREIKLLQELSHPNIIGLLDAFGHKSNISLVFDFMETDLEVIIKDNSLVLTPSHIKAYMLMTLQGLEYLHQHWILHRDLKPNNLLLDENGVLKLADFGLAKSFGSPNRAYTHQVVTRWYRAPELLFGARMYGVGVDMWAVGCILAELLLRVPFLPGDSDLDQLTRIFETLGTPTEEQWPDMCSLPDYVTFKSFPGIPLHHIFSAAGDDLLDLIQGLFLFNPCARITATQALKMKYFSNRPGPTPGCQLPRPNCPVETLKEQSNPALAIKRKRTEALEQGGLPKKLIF

[5] = target: T3, Serine/threonine-protein kinase TAO1 (Homo sapiens, UniProt Q7L7X3)
T3 sequence (Q7L7X3 whole entry): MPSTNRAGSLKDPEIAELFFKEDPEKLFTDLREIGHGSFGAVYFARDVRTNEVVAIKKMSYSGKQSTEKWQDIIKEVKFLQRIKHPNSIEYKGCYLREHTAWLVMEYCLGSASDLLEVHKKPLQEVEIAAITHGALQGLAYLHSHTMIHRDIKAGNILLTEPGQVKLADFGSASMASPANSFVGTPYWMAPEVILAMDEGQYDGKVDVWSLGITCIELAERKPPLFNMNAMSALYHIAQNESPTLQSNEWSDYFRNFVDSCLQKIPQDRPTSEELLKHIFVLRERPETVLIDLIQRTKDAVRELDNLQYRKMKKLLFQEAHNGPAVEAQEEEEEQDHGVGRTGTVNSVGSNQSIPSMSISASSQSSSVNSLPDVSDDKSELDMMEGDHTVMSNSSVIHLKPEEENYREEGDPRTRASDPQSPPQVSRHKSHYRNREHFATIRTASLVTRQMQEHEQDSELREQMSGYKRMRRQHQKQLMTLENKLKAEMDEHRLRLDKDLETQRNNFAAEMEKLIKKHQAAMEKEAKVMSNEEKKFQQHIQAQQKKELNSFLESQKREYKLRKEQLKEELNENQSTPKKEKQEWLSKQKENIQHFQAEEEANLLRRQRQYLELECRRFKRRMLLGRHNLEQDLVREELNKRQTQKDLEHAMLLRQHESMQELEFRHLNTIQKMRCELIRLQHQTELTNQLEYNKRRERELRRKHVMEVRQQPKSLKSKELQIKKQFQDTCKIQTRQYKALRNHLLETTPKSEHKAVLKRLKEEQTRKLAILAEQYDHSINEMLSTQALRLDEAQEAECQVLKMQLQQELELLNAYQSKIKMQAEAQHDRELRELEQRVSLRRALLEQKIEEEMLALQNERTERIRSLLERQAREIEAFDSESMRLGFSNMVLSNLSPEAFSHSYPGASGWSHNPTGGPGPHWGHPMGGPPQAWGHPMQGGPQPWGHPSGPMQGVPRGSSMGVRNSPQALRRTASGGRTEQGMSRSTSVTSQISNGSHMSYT

[6] = target: Cyclin-dependent kinase 5 (Homo sapiens, UniProt Q00535)
Sequence of Cyclin-dependent kinase 5 (Q00535 whole entry): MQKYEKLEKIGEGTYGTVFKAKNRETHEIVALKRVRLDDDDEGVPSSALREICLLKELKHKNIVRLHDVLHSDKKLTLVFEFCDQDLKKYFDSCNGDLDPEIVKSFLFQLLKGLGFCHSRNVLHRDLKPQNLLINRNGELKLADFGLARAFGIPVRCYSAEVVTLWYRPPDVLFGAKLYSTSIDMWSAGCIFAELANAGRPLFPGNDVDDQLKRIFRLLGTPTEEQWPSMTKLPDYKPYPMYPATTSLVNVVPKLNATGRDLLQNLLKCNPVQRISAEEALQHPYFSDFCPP

[7] = target: Proto-oncogene tyrosine-protein kinase receptor Ret (Homo sapiens, UniProt P07949)
Sequence of Proto-oncogene tyrosine-protein kinase receptor Ret (P07949 whole entry): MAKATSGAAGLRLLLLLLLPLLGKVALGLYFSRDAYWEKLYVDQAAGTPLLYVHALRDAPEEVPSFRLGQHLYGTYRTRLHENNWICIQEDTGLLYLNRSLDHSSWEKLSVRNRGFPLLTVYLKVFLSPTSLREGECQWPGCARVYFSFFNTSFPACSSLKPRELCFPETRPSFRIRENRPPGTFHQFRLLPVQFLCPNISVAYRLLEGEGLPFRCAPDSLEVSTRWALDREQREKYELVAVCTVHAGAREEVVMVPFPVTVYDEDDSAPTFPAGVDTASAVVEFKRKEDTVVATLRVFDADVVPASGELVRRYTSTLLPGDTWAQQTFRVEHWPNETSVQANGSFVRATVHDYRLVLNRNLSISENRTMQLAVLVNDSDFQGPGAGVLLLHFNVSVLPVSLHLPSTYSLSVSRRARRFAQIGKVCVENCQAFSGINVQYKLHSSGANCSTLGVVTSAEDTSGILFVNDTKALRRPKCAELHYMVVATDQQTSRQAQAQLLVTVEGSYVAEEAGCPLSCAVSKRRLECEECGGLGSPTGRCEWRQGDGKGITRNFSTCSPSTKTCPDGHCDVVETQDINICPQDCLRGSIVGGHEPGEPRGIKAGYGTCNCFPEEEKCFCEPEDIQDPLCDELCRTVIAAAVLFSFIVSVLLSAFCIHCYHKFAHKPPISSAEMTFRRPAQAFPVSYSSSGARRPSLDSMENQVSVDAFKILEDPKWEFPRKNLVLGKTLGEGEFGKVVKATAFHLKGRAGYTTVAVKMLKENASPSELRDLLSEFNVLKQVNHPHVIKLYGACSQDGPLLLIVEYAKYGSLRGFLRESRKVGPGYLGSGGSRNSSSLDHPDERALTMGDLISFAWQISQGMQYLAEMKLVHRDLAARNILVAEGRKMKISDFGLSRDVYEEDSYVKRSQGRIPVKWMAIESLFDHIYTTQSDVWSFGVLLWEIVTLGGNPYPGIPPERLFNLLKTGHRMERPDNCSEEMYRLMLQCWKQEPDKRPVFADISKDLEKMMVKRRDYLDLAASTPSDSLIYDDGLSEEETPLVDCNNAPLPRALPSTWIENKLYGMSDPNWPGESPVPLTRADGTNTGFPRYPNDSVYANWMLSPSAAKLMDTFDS
Also: in the data inactive means no Kd found up to 30 µM.

Compound | Kd [1] | Kd [2] | Kd [3] | Kd [4] | Kd [5] | Kd [6] | Kd [7]
Cn1cc(C2=C(c3cn(C4CCN(Cc5ccccn5)CC4)c4ccccc34)C(=O)NC2=O)c2ccccc21 [ENZASTAURIN] | > 30 µM (inactive) | > 30 µM (inactive) | > 30 µM (inactive) | – | – | – | –
CN(C[C@@H]1COCCO1)S(=O)(=O)Nc1ccc2ccc3ncc(-c4cnn(C)c4)cc3c(=O)c2c1 [MK-2461] | – | > 30 µM (inactive) | > 30 µM (inactive) | > 30 µM (inactive) | > 30 µM (inactive) | > 30 µM (inactive) | –
CN1C/C=C/CCOc2cccc(c2)-c2ccnc(n2)Nc2cccc(c2)C1 [ZOTIRACICLIB] | – | > 30 µM (inactive) | > 30 µM (inactive) | 0.473 µM (active) | 2.14 µM | 0.93 µM (active) | 21.9 µM
CC(=O)c1cnc2ccc(-c3cc(Cl)c(O)c(Cl)c3)nc2c1N[C@H]1CC[C@H](CN(C)C)CC1 | > 30 µM (inactive) | > 30 µM (inactive) | > 30 µM (inactive) | – | 0.017 µM (active) | 0.253 µM (active) | 0.028 µM (active)
Cc1cc(Nc2ncc(Cl)c(Nc3ccccc3S(=O)(=O)C(C)C)n2)c(OC(C)C)cc1C1CCNCC1 [CERITINIB] | > 30 µM (inactive) | > 30 µM (inactive) | > 30 µM (inactive) | > 30 µM (inactive) | > 30 µM (inactive) | > 30 µM (inactive) | –
CC(C)(C)c1nc(-c2cccc(NS(=O)(=O)c3c(F)cccc3F)c2F)c(-c2ccnc(N)n2)s1 [DABRAFENIB] | > 30 µM (inactive) | > 30 µM (inactive) | > 30 µM (inactive) | – | – | 1.07 µM (active) | –
CCn1cc(-c2ccnc3[nH]c(-c4cccc(CN(C)C)c4)cc23)c(-c2ccc(NC(=O)N(C)C)cc2)n1 [GSK-1070916] | 1.11 µM (active) | > 30 µM (inactive) | – | > 30 µM (inactive) | – | > 30 µM (inactive) | 0.067 µM (active)
C[C@@H](N)c1ccc(C(=O)Nc2ccnc3[nH]ccc23)cc1 [Y-39983] | – | > 30 µM (inactive) | > 30 µM (inactive) | > 30 µM (inactive) | 2.03 µM (active) | > 30 µM (inactive) | > 30 µM (inactive)
CC(C)c1cc(CNc2nc(Nc3cc(C4CC4)[nH]n3)cc(N3CCN(C)CC3)n2)on1 [XL-228] | – | > 30 µM (inactive) | > 30 µM (inactive) | 1.44 µM (active) | > 30 µM (inactive) | > 30 µM (inactive) | 0.009 µM (active)
COc1cc(Nc2ncc3c(n2)-c2ccc(Cl)cc2C(c2c(F)cccc2OC)=NC3)ccc1C(=O)O [ALISERTIB] | – | > 30 µM (inactive) | > 30 µM (inactive) | – | – | – | –
O=C(Nc1cc(C(F)(F)F)cc(C(F)(F)F)c1)c1cc(Cl)ccc1O [IMD-0354] | > 30 µM (inactive) | > 30 µM (inactive) | > 30 µM (inactive) | > 30 µM (inactive) | > 30 µM (inactive) | – | > 30 µM (inactive)
COc1cc2ncnc(Oc3cccc(NC(=O)Nc4cc(C(C)(C)C(F)(F)F)on4)c3)c2cc1OC [CEP-32496] | > 30 µM (inactive) | > 30 µM (inactive) | > 30 µM (inactive) | > 30 µM (inactive) | > 30 µM (inactive) | > 30 µM (inactive) | –
N#CC[C@H](C1CCCC1)n1cc(-c2ncnc3[nH]ccc23)cn1 [RUXOLITINIB] | > 30 µM (inactive) | > 30 µM (inactive) | > 30 µM (inactive) | – | – | – | –
Cc1cc(C(=O)NOCCO)c(Nc2ccc(I)cc2F)n(C)c1=O [AZD-8330] | – | > 30 µM (inactive) | – | > 30 µM (inactive) | > 30 µM (inactive) | > 30 µM (inactive) | > 30 µM (inactive)
C#Cc1cccc(Nc2ncnc3cc(OC)c(OCCCCCCC(=O)NO)cc23)c1 [CUDC-101] | > 30 µM (inactive) | > 30 µM (inactive) | > 30 µM (inactive) | > 30 µM (inactive) | > 30 µM (inactive) | > 30 µM (inactive) | –
CNC(=O)c1nn(C)c2c1C(C)(C)Cc1cnc(Nc3ccc(N4CCN(C)CC4)cc3)nc1-2 [MILCICLIB] | > 30 µM (inactive) | > 30 µM (inactive) | > 30 µM (inactive) | – | – | – | 1.32 µM (active)
Cn1ncc(Cl)c1-c1cc(C(=O)N[C@H](CN)Cc2ccc(F)c(F)c2)oc1Cl [UPROSERTIB] | – | > 30 µM (inactive) | > 30 µM (inactive) | – | > 30 µM (inactive) | > 30 µM (inactive) | > 30 µM (inactive)
CC(=O)NCC(=O)N1[C@@H]2CC[C@H]1c1ccc(Nc3ncc(C(F)(F)F)c(NC4CCC4)n3)cc12 [PF-03814735] | > 30 µM (inactive) | > 30 µM (inactive) | > 30 µM (inactive) | – | – | – | –
Cc1[nH]c(/C=C2\C(=O)Nc3ccccc32)c(C)c1CCC(=O)O [ORANTINIB] | > 30 µM (inactive) | > 30 µM (inactive) | – | – | – | – | –
CNC(=O)c1ccccc1Sc1ccc2c(/C=C/c3ccccn3)n[nH]c2c1 [AXITINIB] | > 30 µM (inactive) | > 30 µM (inactive) | > 30 µM (inactive) | – | – | – | –
C[C@@H](Oc1cc(-n2cnc3ccc(CN4CCN(C)CC4)cc32)sc1C(N)=O)c1ccccc1C(F)(F)F [GSK-461364] | > 30 µM (inactive) | > 30 µM (inactive) | > 30 µM (inactive) | – | – | – | –
CNC(=O)c1cc(Oc2ccc(NC(=O)Nc3cc(C(C)(C)C)nn3-c3ccc4ncccc4c3)c(F)c2)ccn1 [REBASTINIB] | > 30 µM (inactive) | > 30 µM (inactive) | – | > 30 µM (inactive) | > 30 µM (inactive) | 1.5 µM (active) | –
O=C(NOCCO)c1cc(CN2OCCCC2=O)c(F)c(F)c1Nc1ccc(I)cc1F [RO-4987655] | > 30 µM (inactive) | > 30 µM (inactive) | > 30 µM (inactive) | – | – | – | –
NC(=O)c1c(OCc2c(F)cc(Br)cc2F)nsc1NC(=O)NCCCCN1CCCC1 [OSI-632] | > 30 µM (inactive) | > 30 µM (inactive) | > 30 µM (inactive) | – | – | – | –
O=C(Nc1c[nH]nc1-c1nc2cc(CN3CCOCC3)ccc2[nH]1)NC1CC1 [AT-9283] | – | > 30 µM (inactive) | > 30 µM (inactive) | > 30 µM (inactive) | 2.22 µM (active) | – | –
